# Measurements as given in PMC9301601 (Frontiers in Pharmacology, 2022).
# System: hiPSC-CMs
# Experiment: Action potential recording in hiPSC-CMs, whole-cell patch-clamp (current-clamp)
# Type: cell-based, human
# Conditions: LPV-treated hiPSC-CMs, Figure 6H
compound,measurement,value
"Cc1cccc(C)c1OCC(=O)N[C@@H](Cc1ccccc1)[C@@H](O)C[C@H](Cc1ccccc1)NC(=O)[C@H](C(C)C)N1CCCNC1=O [LPV, lopinavir]",Interval (spontaneous rate interval),1.4 ± 0.3 s
